Assay: Solubility test in test solvents
Type: physicochemical
Experimental: The test solvent was poured into a beaker, an amount of the compound 4-(3-ethoxy-4-hydroxyphenyl)-2-butanone was added with magnetic stirring and the mixture was left to stand for between 1 hour and 24 hours. The mixture was then heated to 50° C. and then cooled to room temperature (25° C.) over 24 hours. The system was then observed to see if the amount of compound introduced recrystallized or remained dissolved.
The amount of compound that can be dissolved in the test solvent was determined in this manner. The maximum value corresponds to the amount at and above which the ester compound stops dissolving in the evaluated solvent.

CCOc1cc(CCC(C)=O)ccc1O [4-(3-ethoxy-4-hydroxyphenyl)-2-butanone]
Solubility (in words) (in water or glycerol): very sparingly soluble
Dissolution (in words) (with ethanol, 1,2-propylene glycol, 1,3-propanediol, PEG-8 and propylene carbonate): very satisfactorily dissolved
Dissolution (in words) (with glycerol): very sparingly dissolved

Source: patent US20200405604A1, “COSMETIC COMPOSITION COMPRISING 4-(3-ETHOXY-4-HYDROXYPHENYL)-2-BUTANONE” (L'OREAL, priority 2011, published 2020)
